Experimental data: patent US20110293745A1, “AURORA KINASE INHIBITORS” (SUNESIS PHARMACEUTICALS, INC., priority 2008, published 2011)

Assays:
HCT 116 p53+/+ = test: In vitro combination, HCS cell count assay (CI50); format: cell-based, human; details: HCT 116 p53+/+ and p53−/−; dependent on ratios or p53 status
Method: A combination index compares the concentration of compounds dosed in combination required for a given fractional effect to the concentration of single agent compound required to give the same fractional affect. In this application, the fractional effect is EC50.
The equation above represents the theoretical additive response for two mutually exclusive drugs, and takes into consideration the ratio at which the two compounds are dosed. […].
[…]. High content cell imaging and a cell proliferation assay were used to measure the anti-proliferative effects of the compounds.
HCT 116 cells transfected with p53 RNAi or a control vector were cultured in DMEM, 10% FBS, and 1× antibiotic/antimycotic. Cells were plated in growth medium in black/clear Falcon® 384-well plates. Cells were treated to assess the effects of p53 status, drug dose ratios, and dose schedules. […]. […] All procedures were performed by a Tecan robotic platform.
After overnight growth, cells were treated with compound for a total of 72 hours and incubated at 37° C., 5% CO2. Cells were fixed in 4% formaldehyde and stained with 1:4000 dilution of 10 mg/mL Hoechst 33342. HCS images were captured and data analyzed using the Target Activation application, object count per field parameter, on the ArrayScan VTI instrument (Cellomics, Inc.).

[1] = tested on: HCT 116 p53−/− (p53 RNAi); test: In vitro combination, HCS cell count assay (CI50); format: cell-based, human; details: p53−/− HCT 116 cells; high doses of vincristine
Method: Cells were plated in growth medium in black/clear Falcon® 384-well plates. Cells were treated to assess the effects of p53 status, drug dose ratios, and dose schedules. […] All procedures were performed by a Tecan robotic platform.

## CC[C@]1(O)C[C@H]2CN(CCc3c([nH]c4ccccc34)[C@@](C(=O)OC)(c3cc4c(cc3OC)N(C=O)[C@H]3[C@@](O)(C(=O)OC)[C@H](OC(C)=O)[C@]5(CC)C=CCN6CC[C@]43[C@@H]65)C2)C1 [vincristine]
HCT 116 p53+/+
  interaction with Compound 1 in cell count assay: conditional synergies
[1]
  interaction with Compound 1, co-dosed: Statistically significant synergy
